Assay results: ChEMBL document CHEMBL4049386, “Discovery of an Inhibitor of the Proteasome Subunit Rpn11” (J Med Chem, 2017)
Activity calls are given as the source filed them. The rule behind the calls is not given here.

Legend:
[1] = tested on: HEK-293T; assay: Antiproliferative activity against human 293T cells after 72 hrs by Cell Titer-Glo assay; type: functional, cell-based
[2] = tested on: A549; assay: Antiproliferative activity against human A549 cells after 72 hrs by Cell Titer-Glo assay; type: functional, cell-based; conditions: A549, 72 h
[3] = Aqueous solubility of the compound; type: physicochemical; conditions: buffer
[4] = target: COP9 signalosome complex subunit 5 (Homo sapiens, UniProt Q92905); assay: Inhibition of CSN5 (unknown origin) using SCFskp2-Nedd8OG as substrate after 1 hr by fluorescence polarization assay
COP9 signalosome complex subunit 5, sequence (Q92905 whole entry, one chain of several): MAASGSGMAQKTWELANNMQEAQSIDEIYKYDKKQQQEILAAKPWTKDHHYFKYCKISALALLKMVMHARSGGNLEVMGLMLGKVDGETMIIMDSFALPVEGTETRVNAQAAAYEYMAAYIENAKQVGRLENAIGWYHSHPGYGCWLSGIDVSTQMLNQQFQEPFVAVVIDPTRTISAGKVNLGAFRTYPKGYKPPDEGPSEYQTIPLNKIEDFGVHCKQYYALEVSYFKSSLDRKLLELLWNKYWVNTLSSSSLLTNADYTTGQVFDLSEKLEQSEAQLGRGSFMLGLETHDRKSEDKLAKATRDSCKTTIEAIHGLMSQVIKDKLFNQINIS

[5] = target: T1, STAM-binding protein (Homo sapiens, UniProt O95630); assay: Inhibition of AMSH (unknown origin) using DiUbK63TAMRA as substrate by fluorescence assay
T1 sequence (O95630 whole entry): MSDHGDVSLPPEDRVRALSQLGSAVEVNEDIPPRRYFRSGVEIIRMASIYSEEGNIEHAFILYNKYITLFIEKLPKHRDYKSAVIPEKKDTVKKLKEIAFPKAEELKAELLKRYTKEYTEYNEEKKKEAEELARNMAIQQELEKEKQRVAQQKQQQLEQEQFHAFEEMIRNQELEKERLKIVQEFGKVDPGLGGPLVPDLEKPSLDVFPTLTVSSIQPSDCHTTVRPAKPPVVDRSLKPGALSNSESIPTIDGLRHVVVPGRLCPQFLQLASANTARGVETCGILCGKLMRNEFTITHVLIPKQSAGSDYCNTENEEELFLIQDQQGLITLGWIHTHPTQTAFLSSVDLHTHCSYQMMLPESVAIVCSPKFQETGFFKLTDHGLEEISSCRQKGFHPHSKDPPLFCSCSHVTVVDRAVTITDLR

[6] = tested on: HCT-116; assay: cells; conditions: Homo sapiens, HCT-116, 72 h
Description: Antiproliferative activity against human HCT116 cells after 72 hrs by Cell Titer-Glo assay

[7] = target: 72 kDa type IV collagenase (Homo sapiens, UniProt P08253); assay: Inhibition of recombinant human MMP2 catalytic domain (Tyr110 to Asp452 residues) expressed in yeast using Mca-Pro-Leu-Gly-Leu-Dpa-Ala-Arg-NH2.AcOH as substrate preincubated for 30 mins followed by substrate addition measured every minute for 20 mins by fluorescence assay
72 kDa type IV collagenase, sequence (P08253 whole entry, the tested form may be a part): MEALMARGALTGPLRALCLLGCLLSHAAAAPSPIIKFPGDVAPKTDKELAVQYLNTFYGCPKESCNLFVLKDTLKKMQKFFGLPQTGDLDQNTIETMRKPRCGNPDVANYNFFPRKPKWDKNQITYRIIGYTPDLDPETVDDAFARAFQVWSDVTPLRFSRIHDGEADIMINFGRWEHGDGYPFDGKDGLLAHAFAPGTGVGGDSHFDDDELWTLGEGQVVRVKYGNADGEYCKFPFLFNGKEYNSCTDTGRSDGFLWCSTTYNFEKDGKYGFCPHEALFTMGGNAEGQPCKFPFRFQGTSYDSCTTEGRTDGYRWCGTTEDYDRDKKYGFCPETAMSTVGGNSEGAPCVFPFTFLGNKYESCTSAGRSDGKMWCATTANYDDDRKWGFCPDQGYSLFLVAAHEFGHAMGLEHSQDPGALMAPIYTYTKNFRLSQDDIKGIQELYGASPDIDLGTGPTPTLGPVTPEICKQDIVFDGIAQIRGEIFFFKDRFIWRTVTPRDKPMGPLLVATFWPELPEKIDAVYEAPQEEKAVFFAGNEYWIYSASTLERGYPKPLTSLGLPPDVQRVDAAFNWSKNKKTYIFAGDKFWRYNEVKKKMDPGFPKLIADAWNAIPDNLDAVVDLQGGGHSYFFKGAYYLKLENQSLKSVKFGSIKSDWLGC

[8] = target: T2, Polyunsaturated fatty acid 5-lipoxygenase (Homo sapiens, UniProt P09917); assay: Inhibition of recombinant human 5-LO expressed in baculovirus infected sf9 cells using arachidonic acid as substrate preincubated for 10 mins followed by substrate addition measured every minute for 20 mins by H2DCFDA dye based fluorescence assay
T2 sequence (P09917 whole entry): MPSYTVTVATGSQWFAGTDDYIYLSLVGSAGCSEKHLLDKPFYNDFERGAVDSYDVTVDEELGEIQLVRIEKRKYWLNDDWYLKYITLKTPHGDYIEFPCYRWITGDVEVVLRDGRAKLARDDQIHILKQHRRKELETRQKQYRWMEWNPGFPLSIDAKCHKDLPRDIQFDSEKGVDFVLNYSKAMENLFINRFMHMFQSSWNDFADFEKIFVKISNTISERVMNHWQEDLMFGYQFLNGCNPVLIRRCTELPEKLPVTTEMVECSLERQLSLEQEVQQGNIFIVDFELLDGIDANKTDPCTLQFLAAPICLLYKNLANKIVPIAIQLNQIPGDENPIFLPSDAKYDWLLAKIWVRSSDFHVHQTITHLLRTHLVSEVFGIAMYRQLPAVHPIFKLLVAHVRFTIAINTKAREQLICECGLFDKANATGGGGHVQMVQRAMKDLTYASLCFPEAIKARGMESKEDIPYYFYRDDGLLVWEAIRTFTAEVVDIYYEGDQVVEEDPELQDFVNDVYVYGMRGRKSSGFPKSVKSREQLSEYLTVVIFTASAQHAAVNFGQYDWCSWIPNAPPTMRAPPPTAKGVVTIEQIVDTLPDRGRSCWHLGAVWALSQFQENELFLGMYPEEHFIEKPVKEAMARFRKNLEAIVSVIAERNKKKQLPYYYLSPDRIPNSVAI

[9] = target: Carbonic anhydrase 2 (Homo sapiens, UniProt P00918); assay: Inhibition of human carbonic anhydrase-2 using p-nitrophenylacetate as substrate preincubated for 10 mins followed by substrate addition
[10] = target: T3, Protein deacetylase HDAC6 (Homo sapiens, UniProt Q9UBN7); assay: Inhibition of full length recombinant human N-terminal GST-tagged HDAC6 expressed in baculovirus expression system using substrate 3 preincubated for 5 mins followed by substrate addition measured after 30 mins by fluorescence assay
T3 sequence (Q9UBN7 whole entry): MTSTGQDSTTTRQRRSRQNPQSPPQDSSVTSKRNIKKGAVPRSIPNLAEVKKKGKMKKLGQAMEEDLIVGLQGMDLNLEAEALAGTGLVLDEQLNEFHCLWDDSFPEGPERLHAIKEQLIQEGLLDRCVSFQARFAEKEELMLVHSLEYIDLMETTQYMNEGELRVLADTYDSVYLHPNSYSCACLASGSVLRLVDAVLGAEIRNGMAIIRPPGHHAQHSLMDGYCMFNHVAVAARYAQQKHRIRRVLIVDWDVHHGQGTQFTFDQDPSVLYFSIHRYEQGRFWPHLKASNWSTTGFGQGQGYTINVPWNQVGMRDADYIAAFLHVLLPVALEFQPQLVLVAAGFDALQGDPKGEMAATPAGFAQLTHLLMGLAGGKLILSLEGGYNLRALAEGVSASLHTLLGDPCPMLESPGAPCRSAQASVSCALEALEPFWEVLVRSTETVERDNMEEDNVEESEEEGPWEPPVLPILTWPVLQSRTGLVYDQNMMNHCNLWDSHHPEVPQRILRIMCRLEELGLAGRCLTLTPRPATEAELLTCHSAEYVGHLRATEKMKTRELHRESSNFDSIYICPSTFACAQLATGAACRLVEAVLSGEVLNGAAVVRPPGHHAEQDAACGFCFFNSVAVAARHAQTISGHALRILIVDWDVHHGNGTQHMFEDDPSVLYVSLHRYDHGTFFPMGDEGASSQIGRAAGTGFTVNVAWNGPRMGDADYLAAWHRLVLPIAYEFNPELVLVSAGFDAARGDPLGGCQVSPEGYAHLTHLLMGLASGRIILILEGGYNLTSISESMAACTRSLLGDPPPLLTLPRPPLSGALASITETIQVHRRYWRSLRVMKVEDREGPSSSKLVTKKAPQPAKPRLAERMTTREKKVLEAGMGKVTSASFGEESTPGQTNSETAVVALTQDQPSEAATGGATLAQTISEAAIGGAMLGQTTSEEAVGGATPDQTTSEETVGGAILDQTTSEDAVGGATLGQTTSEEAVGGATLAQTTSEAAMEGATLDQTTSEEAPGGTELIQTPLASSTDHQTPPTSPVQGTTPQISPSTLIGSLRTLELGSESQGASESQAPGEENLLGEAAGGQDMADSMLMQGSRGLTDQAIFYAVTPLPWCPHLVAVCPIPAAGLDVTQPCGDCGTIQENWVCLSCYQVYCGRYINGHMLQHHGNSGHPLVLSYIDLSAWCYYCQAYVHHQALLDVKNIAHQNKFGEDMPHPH

[11] = target: Histone deacetylase 1 (Homo sapiens, UniProt Q13547); assay: Inhibition of full length recombinant human C-terminal His/FLAG-tagged HDAC1 expressed in baculovirus expression system using substrate 3 preincubated for 5 mins followed by substrate addition measured after 30 mins by fluorescence assay
Histone deacetylase 1, sequence (Q13547 whole entry): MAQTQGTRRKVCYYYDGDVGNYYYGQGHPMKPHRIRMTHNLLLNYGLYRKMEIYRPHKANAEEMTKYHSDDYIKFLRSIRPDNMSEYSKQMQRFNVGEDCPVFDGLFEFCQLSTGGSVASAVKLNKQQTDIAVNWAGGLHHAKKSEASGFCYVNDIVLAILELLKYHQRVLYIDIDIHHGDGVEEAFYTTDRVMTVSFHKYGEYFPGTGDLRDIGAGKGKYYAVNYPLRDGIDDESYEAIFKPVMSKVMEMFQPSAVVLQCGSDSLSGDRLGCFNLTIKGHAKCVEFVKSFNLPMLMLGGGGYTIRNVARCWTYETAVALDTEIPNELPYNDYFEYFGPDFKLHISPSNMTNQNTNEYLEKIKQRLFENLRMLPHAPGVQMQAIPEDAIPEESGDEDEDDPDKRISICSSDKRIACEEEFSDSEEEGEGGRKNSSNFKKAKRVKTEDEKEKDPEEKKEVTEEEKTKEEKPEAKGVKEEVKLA

[12] = target: T4, 26S proteasome non-ATPase regulatory subunit 14 (Homo sapiens, UniProt O00487); assay: Inhibition of 26S proteasome regulatory subunit RPN11 deubiquitinating activity in human erythrocytes using Ub4-pepOG protein substrate preincubated for 1 hr followed by substrate addition measured after 80 mins by fluorescence polarization assay
T4 sequence (O00487 whole entry): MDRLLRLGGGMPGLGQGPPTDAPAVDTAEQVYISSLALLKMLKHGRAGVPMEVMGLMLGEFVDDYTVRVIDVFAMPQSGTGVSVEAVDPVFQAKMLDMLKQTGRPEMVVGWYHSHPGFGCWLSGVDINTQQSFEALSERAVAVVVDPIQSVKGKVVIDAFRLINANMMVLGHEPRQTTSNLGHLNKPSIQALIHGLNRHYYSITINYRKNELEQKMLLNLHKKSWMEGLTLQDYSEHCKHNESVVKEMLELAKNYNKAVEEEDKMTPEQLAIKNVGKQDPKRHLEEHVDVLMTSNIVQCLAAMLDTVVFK

[13] = target: T4, 26S proteasome non-ATPase regulatory subunit 14; conditions: 200 uM
Description: Inhibition of 26S proteasome regulatory subunit RPN11 deubiquitinating activity in human erythrocytes at 200 uM using Ub4-pepOG protein substrate preincubated for 1 hr followed by substrate addition measured after 80 mins by fluorescence polarization assay relative to control

[14] = target: Lys-63-specific deubiquitinase BRCC36 (Homo sapiens) (UniProt P46736); assay: Inhibition of BRCC36 (unknown origin) using DiUbK63TAMRA as substrate by fluorescence assay
Lys-63-specific deubiquitinase BRCC36 (Homo sapiens), sequence (P46736 whole entry): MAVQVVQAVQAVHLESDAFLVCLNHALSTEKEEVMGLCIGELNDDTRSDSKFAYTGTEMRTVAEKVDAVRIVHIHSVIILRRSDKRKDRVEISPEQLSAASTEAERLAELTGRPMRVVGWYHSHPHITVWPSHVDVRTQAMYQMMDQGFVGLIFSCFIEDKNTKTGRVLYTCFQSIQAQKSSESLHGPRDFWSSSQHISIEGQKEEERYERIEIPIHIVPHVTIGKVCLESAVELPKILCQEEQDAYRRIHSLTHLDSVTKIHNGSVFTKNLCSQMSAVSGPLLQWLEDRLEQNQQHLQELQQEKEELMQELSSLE

| SMILES | IC50 [1] [nM] | IC50 [2] [µM] | solubility [3] | IC50 [4] [µM] | IC50 [5] [µM] | IC50 [6] [nM] | IC50 [7] [µM] | IC50 [8] [µM] | IC50 [9] [µM] | IC50 [10] [µM] | IC50 [11] [µM] | IC50 [12] [nM] | inhibition [13] [%] | inhibition [14] |
| --- | --- | --- | --- | --- | --- | --- | --- | --- | --- | --- | --- | --- | --- | --- |
| O=C(Nc1nccs1)c1cnc2c(SSc3cccc4cc(C(=O)Nc5nccs5)cnc34)cccc2c1 | 6400 | 5.8 | Soluble | 20 | 4.7 |  |  |  |  |  |  |  |  |  |
| Cc1cnc2c(S)cccc2c1 |  |  |  | 7.1 |  | 2600 | > 200 | > 200 | > 40 | > 200 | > 50 | 1600 |  |  |
| Cc1ccnc2c(S)cccc12 |  |  |  | 25.1 |  | > 10000 | > 200 | > 200 | > 200 | > 200 | > 200 | 5700 |  |  |
| Sc1cccc2cccnc12 |  |  |  | 10.3 |  | 1600 | > 200 | > 200 | > 200 | > 200 | > 200 | 2500 to 2800 | 100 | Active |
| CC(C)C[C@H](NC(=O)[C@H](Cc1ccccc1)NC(=O)c1cnccn1)B(O)O [BORTEZOMIB] | 12 | 0.092 |  |  |  |  |  |  |  |  |  |  |  |  |
| Cc1ccc(S)c2ncccc12 |  |  |  | 2.9 |  | 3400 | > 200 | > 200 | > 200 | > 200 | > 200 | 2500 |  |  |
| Cc1cc(S)c2ncccc2c1 |  |  |  |  |  |  | > 200 | > 200 | > 100 | > 50 | > 50 | 900 |  |  |
| O=C(NCCc1nccs1)c1cnc2c(SSc3cccc4cc(C(=O)NCCc5nccs5)cnc34)cccc2c1 | 2100 | 3.8 | Soluble |  |  |  |  |  |  |  |  |  |  |  |
